# Tests used:
# [1] = tested on: human ovarian, A121, tumor cells; conditions: cited from earlier work
# [2] = previous studies; cited from earlier work
# C57BL/6 mice = test: Langerhans cell migration to draining lymph nodes and FITC presentation in mice; format: in vivo, mouse; conditions: 250 mg/kg/day, cumulative dose of 750 mg/kg, 4-day experiment
# Protocol: Six to eight-week old C57BL/6 mice from Charles River Laboratories (Wilmington, Mass.) were housed in pathogen-free conditions in the animal facility at the Harvard Institutes of Medicine and utilized in these experiments. For analysis of LC migration to draining lymph nodes and antigenic presentation by dendritic cells (DC), right ears of mice were painted with 25 μl of 0.5% FITC, a contact sensitizing agent dissolved in acetone-dibutyl phthalate vehicle (1:1 v/v), while left ears were painted with 25 μl of vehicle alone. After 30 h, regional auricular/cervical lymph nodes draining right or left ears, respectively, were isolated and single cell suspensions were prepared. To enrich for DC, cell suspensions were subjected to Optiprep™ (Accurate Chemicals, Westbury, N.Y.) discontinuous gradient centrifugation. […] Positive cells stained with PE-anti-CD11c were gated and analyzed for FITC expression. […]
# Following a 30 h incubation, CD11c-positive LC isolated from the draining lymph nodes were analyzed for FITC expression by flow cytometry.
# [3] = tested on: CD44 on human hematopoietic KG1a cells; test: Flow cytometric analysis of CD44 on KG1a cells; format: cell-based
# From the text: In a similar set of experiments, we analyzed the effects of 4-F-GlcNAc on selectin ligand expression and function on the human hematopoietic cell line KGla. KGla cells express a distinct HECA-452-reactive CD44 glycoform that functions as both an E- and L-selectin ligand (Dimitroff, C. J. et al. (2001) J. Cell Biol., 53: 1277–1286; Dimitroff, C. J. et al. (2000) Proc. Nat. Acad. Sci., 97(25):13841–46; Sackstein, R. and Dimitroff, C. J. (2000) Blood, 96: 2765–74.), otherwise known as HCELL, respectively. This specialized glycoform represents a major E-selectin and the primary L-selectin ligand on normal CD34+ HPCs and on leukemic cells, and, therefore, is also implicated in the BM homing aspects and growth-related activities of HPCs in vivo, respectively (Id.). We first performed flow cytometric analysis of HECA-452 antigen and CD44 on 4-F-GlcNAc-treated KGla cells. […] Only positive cells, which were those cells with fluorescence above background autofluorescence and fluorochrome-conjugated secondary Ab staining, were analyzed.
# Flow cytometric analysis was performed on human leukocytes utilizing both direct and indirect immunofluorescence staining approaches. All cells utilized for these experiments were washed twice with cold PBS/2%FBS and suspended at 10^7/ml PBS/1% FBS. Primary antibodies, anti-CLA (HECA-452), -CD4, -CD8, CD43 (L60) and PSGL-1 (PL-2) along with the appropriate isotype-matched control antibodies were incubated with the cells for 30 min on ice. Following two washes with PBS/2%FBS, cells were resuspended in PBS/1%FBS and fluorochrome-conjugated secondary antibodies (2 μl) and incubated for 30 min on ice. Cells were washed twice with PBS/2%FBS, resuspended in PBS and flow cytometry was performed on a FACScan apparatus equipped with an argon laser tuned at 488 nm (Becton Dickinson).
# [4] = tested on: (Galβ1,4GlcNAc)n (LEA staining); test: Lectin blot with LEA of CLA+ T-cell lysates; format: cell-based, human; conditions: compared with PBS or GlcNAc treatments
# Protocol: (§1) For lectin blotting, cell lysates (25 μg/spot) were spotted onto methanol-permeabilized PVDF membrane and blocked in FBS for 1 h at RT. Blots were then probed with AP-Canavalia ensiformis agglutinin (ConA) (2.0 μg/ml PBS; specificity: α-mannose), AP-Triticum vulgaris (Wheat germ) agglutinin (WGA) (0.5 μg/ml PBS; specificity: terminal GlcNAc or GlcNAcβ1,4GlcNAc) or AP-Lycopersicon esculentum (tomato lectin) agglutinin (LEA) (1.0 μg/ml PBS; specificity: (Galβ1,4GlcNAc)n) for 1 h at RT (All lectins from EY Labs., Inc., San Mateo, Calif.). After washing 3× in PBS/0.1% Tween-20 and 1× in PBS (10 min each), blots were developed with Western Blue®.
# (§2) To analyze and identify the glycan modifications on CLA^+ T-cells treated with 4-F-GlcNAc, lectin blotting experiments were performed with ConA (Specificity: α-mannose), WGA (Specificity: terminal GlcNAc or GlcNAcβ1,4GlcNAc) and LEA (Specificity: {Galβ1,4GlcNAc}n).
# [5] = tested on: human colon HT-29 cancer cells; conditions: HT-29 cells; cited from earlier work
# [6] = tested on: terminal GlcNAc or GlcNAcβ1,4GlcNAc (WGA staining); test: Lectin blot with WGA of CLA+ T-cell lysates; format: cell-based, human; conditions: compared with PBS or GlcNAc treatments
# Protocol: as §1, §2
# C57BL6 mice = test: DNFB-induced delayed type hypersensitivity (ear swelling) in mice; format: in vivo, mouse
# Protocol: Previous studies evaluating the anti-tumor and anti-metastatic effects of fluorinated hexosamine analogs and 3 or 4-F-GlcNAc, specifically, indicate that the dose limiting toxicity was ˜250 mg/kg×6 days and that i.p. administration of these sugar analogs was an efficacious mode of delivery. Thus, in these studies, a maximal dose of 250 mg/kg as well as 100 and […] doses were used in order to make both toxic and efficacy assessments of fluorinated hexosamine analog anti-inflammatory effects. To induce delayed type hypersensitivity (DTH), C57BL6 mice were sensitized on their abdomen on days 0 and 1 with 25 μl of 0.5% 2,4-dinitrofluorobenzene (DNFB) (i.e. hapten) in a 4:1 solution of acetone to olive oil (vehicle). Negative control mice were sensitized with vehicle alone. Mice were then treated from days 0–6 with drug vehicle (0.9% saline), 50 mg/kg 4-F-GlcNAc, 100 mg/kg 4-F-GlcNAc, 250 mg/kg 4-F-GlcNAc or 250 mg/kg GlcNAc (negative sugar control). Hapten-induced inflammation was then promoted on day 6 by challenging the mice with 10 μl of 0.25% DNFB on both sides of the right ear and mice also received 10 μl of vehicle alone on both sides of the left ear as a negative inflammatory control. Ear swelling responses were measured 24 h later on day 7 and subtracted from baseline measurements that were recorded on day 6.
# Histological analysis of right ears from mice receiving sensitizing and challenging hapten doses that were treated with saline vehicle control did show the presence of lymphocytic infiltrate and amount of lymphocytic infiltrate corresponded to ear swelling measurements (See FIG. 14 Panel B).
Compound,incorporation of radiolabeled sugar precursors [1],dose limiting toxicity [2],weight gain (C57BL/6 mice),CD44 % Positive Cell Staining ([3]; KG1a neuraminidase then recovery in 0.05 mM),CD44 % Positive Cell Staining ([3]; KG1a neuraminidase then recovery in 0.1 mM),CD44 % Positive Cell Staining ([3]; KG1a neuraminidase then recovery in 0.5 mM),expression of CD44 on KG1a cells ([3]; even at 0.5 mM),LEA staining of lysates [4],radiolabeled sugar incorporation into cell surface glycoproteins [5],WGA staining of lysates [6],"inflammatory response (ear swelling) (C57BL6 mice; 50 mg/kg, days 0–6, i.p., p<0.0002)","inflammatory response (ear swelling) (C57BL6 mice; 100 mg/kg, days 0–6, i.p.)","inflammatory response (ear swelling) (C57BL6 mice; 250 mg/kg, days 0–6, i.p.)",inflammatory responses in FucTVII −/− mice (C57BL6 mice; FucTVII −/− mice),"inflammatory response (ear swelling) (C57BL6 mice; 250 mg/kg negative sugar control, days 0–6)"
"CC(=O)N[C@H]1C(OC(C)=O)O[C@H](COC(C)=O)[C@@H](F)[C@@H]1OC(C)=O (stereo partly drawn) [4-F-GlcNAc, 2-acetamido-2-deoxy-1,3,6-tri-O-acetyl-4-deoxy-4-fluoro-D-glucopyranose]",conspicuous reductions,~250 mg/kg×6 days,did not show similar weight gain,100%,100%,100%,no reduction,notably diminished,"inhibition of radiolabeled glucosamine, fucose and galactose incorporation",elevated,statistically significant diminution,completely abrogated,completely abrogated,further reduced,
"CC(=O)N[C@H]1C(O)O[C@H](CO)[C@@H](O)[C@@H]1O (some centres unmarked) [GlcNAc, N-acetylglucosamine]",,,,,,,,,,,,,,,no anti-inflammatory effect
tunicamycin,,,,,,,,eliminated,,eliminated,,,,,
